# What was measured:
# [1] = In Vitro Metabolic Conversion Assay Using Human Plasma; type: in vitro ADME; settings: incubation with human plasma at 15 µg/mL, 37° C., 60 minutes, HPLC
# Procedure: Method F: In Vitro Metabolic Conversion Assay Using Human Plasma. A representative compound (Example 1, Compound 3) was incubated with human plasma at 15 µg/mL. Incubations were carried out at 37° C. in a shaker water bath. Samples were taken at 0, 10, 30 and 60 minutes, quenched with 25 μL of trifluoroacetic acid, and then centrifuged at 25,000 g for 3 minutes at 4° C. The supernatant of each sample was collected and analyzed using HPLC to monitor the formation of clofarabine. FIG. 1 illustrates the results for incubations performed at 37° C.
# [2] = test system: human K562 chronic myelogenous leukemia cell line; assay: In Vitro Anti-proliferative Assay Using Human K562 Leukemia Cell Line; type: cell-based; settings: K562 cells, 72 hours, 37° C., 5% CO2, triplicates, cell viability
# Procedure: Method H: In Vitro Anti-proliferative Assay Using Human K562 Leukemia Cell Line. A representative compound (Example 1, Compound 3) was assessed for its anti-proliferative activity against human K562 chronic myelogenous leukemia cell line at various concentrations ranging from 10 μM to 0.005 μM in triplicates. Incubations were carried out at 37° C., 5% CO2, under humidified atmosphere for 72 hours. After incubation, cell viability was examined.
smiles,measurement,setting,value
"CCOC(=O)OC[C@H]1O[C@@H](n2cnc3c(N)nc(Cl)nc32)[C@@H](F)[C@@H]1O [Compound 3, (2R,3R,4S,5R)-5-(6-Amino-2-chloropurin-9-yl)-2-(ethoxycarbonyloxymethyl)-4-fluoro-oxolan-3-ol]","metabolic conversion in human plasma (depletion of prodrug, formation of clofarabine)",[1],depletion of 3 was observed along with the formation of clofarabine as its metabolite
same,IC50,[2],324 ± 18 nM

# From US11701377B2, “Methods for treating cancers by prodrugs of clofarabine” (priority 2016, dated 2023)
